Columns and labels:
Assay in all cases: microbe, parasite or virus in culture
[1] = test system: Pseudotyped HCV GT1b particles (HCVpp), entry into Huh7-high CD81 cells; format: cell-based, HCV GT1b Con1 strain; conditions: Hepatitis C virus, GT1B, 72 h, read-out: HCVpp GT-1b (EC50, μM)
[2] = test system: pseudotyped VSV G particles (VSVpp) in Huh7-high CD81 cells; format: cell-based, vesicular stomatitis virus; conditions: Vesicular stomatitis virus, 72 h, read-out: VSVpp (EC50, μM)
[3] = test system: Pseudotyped HCV GT1a particles (HCVpp), entry into Huh7-high CD81 cells; format: cell-based, HCV GT1a H77 strain; conditions: Hepatitis C virus, 72 h, read-out: HCVpp GT-1a (EC50, μM)

| SMILES | EC50 [1] | EC50 [2] | EC50 [3] |
| --- | --- | --- | --- |
| CS(=O)(=O)Nc1ccc(-c2c(Cl)cc(Nc3n[nH]c(N)n3)cc2Cl)cc1 [Compound 111, N-[4′-(5-Amino-1H-[1,2,4]triazol-3-ylamino)-2′,6′-dichloro-biphenyl-4-yl]-methanesulfonamide] | 0.039 µM | 7.53 µM | 0.003 µM |
| CS(=O)(=O)Nc1cccc(-c2c(Cl)cc(Nc3n[nH]c(N)n3)cc2Cl)c1 [Compound 112, N-[4′-(5-Amino-1H-[1,2,4]triazol-3-ylamino)-2′,6′-dichloro-biphenyl-3-yl]-methanesulfonamide] | 0.048 µM | 15.3 µM | 0.006 µM |
| CS(=O)(=O)c1cccc(-c2c(Cl)cc(Nc3n[nH]c(N)n3)cc2Cl)c1 [Compound 114, N-3-(2,6-Dichloro-3′-methanesulfonyl-biphenyl-4-yl)-1H-[1,2,4]triazole-3,5-diamine] | 0.069 µM | 18.2 µM | 0.01 µM |
| CN(C)C(=O)c1cccc(-c2c(Cl)cc(Nc3n[nH]c(N)n3)cc2Cl)c1 [Compound 115, 4′-(5-Amino-1H-[1,2,4]triazol-3-ylamino)-2′,6′-dichloro-biphenyl-3-carboxylic acid dimethylamide] | 0.107 µM | 34.8 µM | 0.007 µM |
| CNC(=O)c1ccc(-c2c(Cl)cc(Nc3n[nH]c(N)n3)cc2Cl)cc1 [Compound 116, 4′-(5-Amino-1H-[1,2,4]triazol-3-ylamino)-2′,6′-dichloro-biphenyl-4-carboxylic acid methylamide] | 0.086 µM | 29.4 µM | 0.002 µM |
| CNC(=O)c1cccc(-c2c(Cl)cc(Nc3n[nH]c(N)n3)cc2Cl)c1 [Compound 117, 4′-(5-Amino-1H-[1,2,4]triazol-3-ylamino)-2′,6′-dichloro-biphenyl-3-carboxylic acid methylamide] | 0.218 µM | 26.1 µM | 0.011 µM |
| CNS(=O)(=O)c1ccc(-c2c(Cl)cc(Nc3n[nH]c(N)n3)cc2Cl)cc1 [Compound 118, 4′-(5-Amino-1H-[1,2,4]triazol-3-ylamino)-2′,6′-dichloro-biphenyl-4-sulfonic acid methylamide] | 0.013 µM | 4.24 µM | 0.004 µM |
| CC(C)S(=O)(=O)c1ccc(-c2c(Cl)cc(Nc3n[nH]c(N)n3)cc2Cl)cc1 [Compound 122, N-3-[2,6-Dichloro-4′-(propane-2-sulfonyl)-biphenyl-4-yl]-1H-[1,2,4]triazole-3,5-diamine] | 0.024 µM | 12.1 µM | 0.004 µM |
| CN(C)S(=O)(=O)c1ccc(-c2c(Cl)cc(Nc3n[nH]c(N)n3)cc2Cl)cc1 [Compound 123, 4′-(5-Amino-1H-[1,2,4]triazol-3-ylamino)-2′,6′-dichloro-biphenyl-4-sulfonic acid dimethylamide] | 0.042 µM | 11 µM | 0.002 µM |
| Nc1nc(Nc2ccc(-c3ccccc3)c(Cl)c2)n[nH]1 [Compound 144, N*3*-(2-Chloro-biphenyl-4-yl)-1H-[1,2,4]triazole-3,5-diamine] | 2.92 µM | 34.8 µM | 0.333 µM |
| Nc1nc(Nc2ccc(-c3ccc(F)cc3)c(Cl)c2)n[nH]1 [Compound 145, N*3*-(2-Chloro-4′-fluoro-biphenyl-4-yl)-1H-[1,2,4]triazole-3,5-diamine] | 6.02 µM | 39.1 µM | 0.532 µM |
| Nc1nc(Nc2ccc(-c3ccc(F)c(F)c3)c(Cl)c2)n[nH]1 [Compound 147, N*3*-(2-Chloro-3′,4′-difluoro-biphenyl-4-yl)-1H-[1,2,4]triazole-3,5-diamine] | 6.12 µM | 47.2 µM | 0.621 µM |
| Nc1nc(Nc2ccc(-c3cccc(F)c3)c(Cl)c2)n[nH]1 [Compound 148, N*3*-(2-Chloro-3′-fluoro-biphenyl-4-yl)-1H-[1,2,4]triazole-3,5-diamine] | 3.34 µM | 33.8 µM | 0.301 µM |
| NC(=O)c1ccc(-c2c(Cl)cc(Nc3n[nH]c(N)n3)cc2Cl)cc1 [Compound 159, 4′-(5-amino-1H-1,2,4-triazol-3-ylamino)-2′,6′-dichlorobiphenyl-4-carboxamide] | 0.164 µM | 4.62 µM | 0.005 µM |
| COc1ccc(-c2c(Cl)cc(Nc3n[nH]c(N)n3)cc2C(F)(F)F)cc1S(=O)(=O)N1CCN(C(=O)OC(C)(C)C)CC1 [Compound 166, tert-butyl 4-(4′-(5-amino-1H-1,2,4-triazol-3-ylamino)-2′-chloro-4-methoxy-6′-(trifluoromethyl)biphenyl-3-ylsulfonyl)piperazine-1-carboxylate] | 0.005 µM | > 10 µM | 0.003 µM |
| Nc1nc(Nc2cc(Cl)c(-c3ccc(S(=O)(=O)N4CCCC4)cc3)c(C(F)(F)F)c2)n[nH]1 [Compound 170, N3-(2-chloro-4′-(pyrrolidin-1-ylsulfonyl)-6-(trifluoromethyl)biphenyl-4-yl)-1H-1,2,4-triazole-3,5-diamine] | 0.026 µM | 14.1 µM | 0.02 µM |
| Nc1nc(Nc2cc(Cl)c(-c3ccc(S(=O)(=O)N[C@H]4C[C@H](O)C4)cc3)c(C(F)(F)F)c2)n[nH]1 [Compound 173, 4′-(5-amino-1H-1,2,4-triazol-3-ylamino)-2′-chloro-N-(trans-3-hydroxycyclobutyl)-6′-(trifluoromethyl)biphenyl-4-sulfonamide] | 0.019 µM | > 10 µM | 0.007 µM |
| COc1ccc(-c2c(Cl)cc(Nc3n[nH]c(N)n3)cc2C(F)(F)F)cc1S(=O)(=O)N1CCOCC1 [Compound 177, N3-(2-chloro-4′-methoxy-3′-(morpholinosulfonyl)-6-(trifluoromethyl)biphenyl-4-yl)-1H-1,2,4-triazole-3,5-diamine] | 0.018 µM | 23.4 µM | 0.003 µM |
| COc1cc(-c2c(Cl)cc(Nc3n[nH]c(N)n3)cc2C(F)(F)F)ccc1S(=O)(=O)NC(C)(C)C [Compound 179, 4′-(5-amino-1H-1,2,4-triazol-3-ylamino)-N-tert-butyl-2′-chloro-3-methoxy-6′-(trifluoromethyl)biphenyl-4-sulfonamide] | 0.02 µM | 8.55 µM | 0.002 µM |
| Nc1nc(Nc2cc(Cl)c(-c3ccc(S(=O)(=O)N[C@H]4CC[C@H](O)CC4)cc3)c(C(F)(F)F)c2)n[nH]1 [Compound 184, 4′-(5-amino-1H-1,2,4-triazol-3-ylamino)-2′-chloro-N-(trans-4-hydroxycyclohexyl)-6′-(trifluoromethyl)biphenyl-4-sulfonamide] | 0.05 µM | > 10 µM | 0.028 µM |
| CN(C)S(=O)(=O)c1ccc(-c2c(Cl)cc(Nc3n[nH]c(N)n3)cc2C(F)(F)F)cc1 [Compound 185, 4′-(5-amino-1H-1,2,4-triazol-3-ylamino)-2′-chloro-N,N-dimethyl-6′-(trifluoromethyl)biphenyl-4-sulfonamide] | 0.052 µM | 11.7 µM | 0.015 µM |
| CS(=O)(=O)NCc1ccc(-c2c(Cl)cc(Nc3n[nH]c(N)n3)cc2C(F)(F)F)cc1 [Compound 186, N-((4′-(5-amino-1H-1,2,4-triazol-3-ylamino)-2′-chloro-6′-(trifluoromethyl)biphenyl-4-yl)methyl)methanesulfonamide] | 0.038 µM | 19.7 µM | 0.011 µM |
| CS(=O)(=O)c1ccc(-c2c(Cl)cc(Nc3n[nH]c(N)n3)cc2C(F)(F)F)cc1 [Compound 187, N3-(2-chloro-4′-(methylsulfonyl)-6-(trifluoromethyl)biphenyl-4-yl)-1H-1,2,4-triazole-3,5-diamine] | 0.046 µM | 1.58 µM | 0.016 µM |
| COc1ccc(-c2c(Cl)cc(Nc3n[nH]c(N)n3)cc2C(F)(F)F)cc1S(=O)(=O)NC(C)(C)CO [Compound 218, 4′-(5-Amino-1H-[1,2,4]triazol-3-ylamino)-6′-chloro-4-methoxy-2′-trifluoromethyl-biphenyl-3-sulfonic acid (2-hydroxy-1,1-dimethyl-ethyl)-amide] | 0.005 µM | 20.3 µM | 0.003 µM |
| Nc1nc(Nc2cc(Cl)c(-c3ccc(NC(=O)CN4CCS(=O)(=O)CC4)cc3)c(C(F)(F)F)c2)n[nH]1 [Compound 240] | 0.171 µM | > 10 µM | 0.011 µM |
| CS(=O)(=O)Nc1ccc(-c2c(F)cc(Nc3nc(N)n[nH]3)cc2C(F)(F)F)cc1 [Compound 242, N-[4′-(5-Amino-2H-[1,2,4]-triazol-3-ylamino)-6′-fluoro-2′-trifluoromethyl-biphenyl-4-yl]-methanesulfonamide] | 0.113 µM | > 10 µM | 0.061 µM |
| Nc1nc(Nc2cc(Cl)c(-c3ccc4c(c3)CC(=O)N4)c(Cl)c2)n[nH]1 [Compound 254] | 0.051 µM | 12.9 µM | 0.003 µM |
| Nc1nc(Nc2cc(Cl)c(-c3ccc(OC[C@@H]4CCCN4)cc3)c(Cl)c2)n[nH]1 [Compound 265, N*3*-[2,6-Dichloro-4′-((S)-1-pyrrolidin-2-ylmethoxy)-biphenyl-4-yl]-1H-[1,2,4]triazole-3,5-diamine] | 0.063 µM | 17.9 µM | 0.005 µM |
| Nc1nc(Nc2cc(Cl)c(-c3ccc(F)cc3)c(Cl)c2)n[nH]1 [Compound 286, N3-(2,6-dichloro-4′-fluorobiphenyl-4-yl)-1H-1,2,4-triazole-3,5-diamine] | 0.64 µM | 13.6 µM | 0.018 µM |
| Nc1nc(Nc2cc(Cl)c(-c3ccccc3F)c(Cl)c2)n[nH]1 [Compound 287, N3-(2,6-dichloro-2′-fluorobiphenyl-4-yl)-1H-1,2,4-triazole-3,5-diamine] | 0.366 µM | 13 µM | 0.005 µM |

— patent US9693997B2, “Antiviral compounds” (priority 2013, dated 2017)
